Microsomal CLint, bioavailability and AUC data for 14 compounds are collected here from ChEMBL document CHEMBL2331276, “A novel class of 3-(phenoxy-phenyl-methyl)-pyrrolidines as potent and balanced norepinephrine and serotonin reuptake inhibitors: synthesis and structure-activity relationships” (Bioorg Med Chem Lett, 2013).

A value given as a limit tells only on which side of the number the result lay.

A short description of data set [1]: in vitro. The conditions noted are these: human, liver microsomes. On the technique in general: Liver microsomes are a subcellular fraction often used to study metabolism.
Data set [2] is described as follows: in vitro. Particulars: rat, liver microsomes.
Data set [3] in a line: Oral bioavailability in rat at 10 mg/kg. The conditions noted are these: in vivo. Format: ADME, organism-based.
Data set [4] is described as follows: AUC in rat at 10 mg/kg, po. Format: ADME, organism-based. On the set-up: dose 10 mg/kg, route oral. The conditions noted are these: plasma.

The term microsomal CLint denotes the capacity of the preparation to metabolise the compound, expressed as a volume cleared per time. The compound `Clc1cccc(O[C@@H](c2ccccc2)[C@H]2CCNC2)c1Cl` gave a microsomal CLint in the data set “in vitro [1]” of less than 5 µL/min/mg.

Consider `Clc1cc(Cl)cc(O[C@@H](c2ccccc2)[C@H]2CCNC2)c1`, for which the microsomal CLint is less than 5 µL/min/mg in the data set “in vitro [1]” and 4530 µL/min/mg in “in vitro [2]”.

In the case of `Clc1cc(Cl)cc(O[C@H](c2ccccc2)[C@@H]2CCNC2)c1`, the values for the microsomal CLint in the data set “in vitro [1]” and in the data set “in vitro [2]” were less than 5 µL/min/mg and 21 µL/min/mg, respectively.

`Fc1ccc(O[C@@H](c2ccccc2)[C@H]2CCNC2)c(Cl)c1`: the microsomal CLint in the data set “in vitro [1]” was less than 5 µL/min/mg; in the data set “in vitro [2]”, 185 µL/min/mg.

Take `COc1cc(Cl)ccc1O[C@@H](c1ccccc1)[C@H]1CCNC1`: the microsomal CLint in the data set “in vitro [1]” was less than 5 µL/min/mg; in “in vitro [2]” it was 1990 µL/min/mg.

In “in vitro [1]”, `COc1cc([N+](=O)[O-])ccc1O[C@@H](c1ccccc1)[C@H]1CCNC1` displayed a microsomal CLint of less than 5 µL/min/mg.

Take `Clc1cc(Cl)c(Cl)c(O[C@H](c2ccccc2)[C@@H]2CCNC2)c1`: the microsomal CLint was less than 5 µL/min/mg in the data set “in vitro [1]” and 100 µL/min/mg in “in vitro [2]”.

For `Clc1ccc(Cl)c(O[C@@H](c2ccccc2)[C@H]2CCNC2)c1Cl`, the values for the microsomal CLint in the data set “in vitro [1]” and in “in vitro [2]” were less than 5 µL/min/mg and 4620 µL/min/mg, respectively.

In general, bioavailability refers to dose-corrected exposure relative to a reference, in per cent. Higher therefore signals good availability. What is called AUC is concentration integrated over time. A higher AUC goes with more exposure. As for `Clc1ccc(Cl)c(O[C@H](c2ccccc2)[C@@H]2CCNC2)c1Cl`, the microsomal CLint in “in vitro [1]” is less than 5 µL/min/mg; in the data set “in vitro [2]” it was 4600 µL/min/mg. The compound also registered a bioavailability in data set [3] of 6%. The compound further showed an AUC in data set [4] of 70 ng·h/mL.

For `Fc1ccc(F)c(O[C@@H](c2ccccc2)[C@H]2CCNC2)c1Cl`, the intrinsic clearance (microsomal CLint) in the data set “in vitro [1]” is 113 µL/min/mg; in the data set “in vitro [2]”, 1660 µL/min/mg.

For `Fc1ccc(F)c(O[C@H](c2ccccc2)[C@@H]2CCNC2)c1Cl`, the microsomal CLint in the data set “in vitro [1]” is 115 µL/min/mg; in the data set “in vitro [2]”, 1340 µL/min/mg.

Regarding `Fc1cc(F)c(F)c(O[C@H](c2ccccc2)[C@@H]2CCNC2)c1F`, the microsomal CLint in “in vitro [1]” was less than 5 µL/min/mg; in the data set “in vitro [2]” it was 200 µL/min/mg.

On to `CCN(CC)C(=O)C1(c2ccccc2)CC1CN` (stereo not drawn), for which the microsomal CLint in “in vitro [1]” and in the data set “in vitro [2]” was less than 5 µL/min/mg each time.

With `CCOc1ccccc1O[C@@H](c1ccccc1)[C@@H]1CNCCO1` [ESREBOXETINE], the values for the microsomal CLint in “in vitro [1]” and in the data set “in vitro [2]” were 570 µL/min/mg and 5100 µL/min/mg, respectively.
